Assay results: ChEMBL document CHEMBL1137070, “Novel galbonolide derivatives as IPC synthase inhibitors: design, synthesis and in vitro antifungal activities” (2004)
In brackets after ≈: the same amount, converted by molar mass.

Assays:
Type in all cases: functional
[1] = test system: Aspergillus fumigatus; assay: In vitro antifungal activity against Aspergillus fumigatus TIMM1776; activity expressed as minimum inhibitory concentration
[2] = test system: Cryptococcus neoformans; assay: In vitro antifungal activity against Cryptococcus neoformans ATCC 9011; activity expressed as minimum inhibitory concentration
[3] = test system: Candida albicans; assay: In vitro antifungal activity against Candida albicans ATCC 90028
[4] = test system: Cryptococcus neoformans; assay: In vitro antifungal activity against Cryptococcus neoformans ATCC 9011
[5] = test system: Candida albicans; assay: In vitro antifungal activity against Candida albicans ATCC 90028; activity expressed as minimum inhibitory concentration
[6] = test system: Aspergillus fumigatus; assay: In vitro antifungal activity against Aspergillus fumigatus TIMM1776
[7] = test system: Saccharomyces cerevisiae; assay: In vitro antifungal activity against Saccharomyces cerevisiae Y9
[8] = test system: Saccharomyces cerevisiae; assay: In vitro antifungal activity against Saccharomyces cerevisiae Y9; activity expressed as minimum inhibitory concentration

SMILES	MIC [1] [µg/mL]	MIC [2] [µg/mL]	IC80 [3] [µg/mL]	IC80 [4] [µg/mL]	MIC [5] [µg/mL]	IC80 [6] [µg/mL]	IC80 [7] [µg/mL]	MIC [8] [µg/mL]
C=C1/C=C(\C)[C@H](CC)OC(=O)[C@H](C)C(=O)[C@@](O)(CO)C/C(Cl)=C/[C@@H](C)C1	> 64	16 (≈ 41.6 µM)	64 (≈ 166 µM)	0.15 (≈ 0.39 µM)	> 64	–	–	–
OC(Cn1cncn1)(Cn1cncn1)c1ccc(F)cc1F [FLUCONAZOLE]	–	–	0.5 (≈ 1.63 µM)	8 (≈ 26.1 µM)	–	> 64	8 (≈ 26.1 µM)	–
C=C1/C=C(\C)[C@H](CC)OC(=O)[C@H](C)C(=O)[C@@](O)(CO)[C@H](OC)/C=C/[C@@H](C)C1	> 64	> 64	–	–	> 64	–	–	–
C[C@@H]1[C@H](O)[C@@H](C)/C=C/C=C/C=C/C=C/C=C/C=C/C=C/[C@H](O[C@@H]2O[C@H](C)[C@@H](O)[C@H](N)[C@@H]2O)C[C@@H]2O[C@](O)(C[C@@H](O)C[C@@H](O)[C@H](O)CC[C@@H](O)C[C@@H](O)CC(=O)O[C@H]1C)C[C@H](O)[C@H]2C(=O)O [AMPHOTERICIN B]	1 (≈ 1.08 µM)	0.25 (≈ 0.271 µM)	–	–	0.25 (≈ 0.271 µM)	–	–	0.25 (≈ 0.271 µM)
C=C1/C=C(\C)[C@H](CC)OC(=O)[C@H](C)C(=O)[C@@](O)(CO)C/C(OC)=C/[C@@H](C)C1	> 64	0.063 (≈ 0.166 µM)	1 (≈ 2.63 µM)	< 0.031	4 (≈ 10.5 µM)	–	0.5 (≈ 1.31 µM)	1 (≈ 2.63 µM)
C=C1/C=C(\C)[C@H](CC)OC(=O)[C@H](C)C(=O)[C@@](O)(CO)C/C(OCC(F)(F)F)=C/[C@@H](C)C1	64 (≈ 143 µM)	32 (≈ 71.4 µM)	–	–	> 64	–	–	–
C=C1/C=C(\C)[C@H](CC)OC(=O)[C@H](C)C(=O)[C@@](O)(CO)C/C=C/[C@@H](C)C1	> 64	> 64	–	–	> 64	–	–	–
C=C1/C=C(\C)[C@H](CC)OC(=O)[C@H](C)C(=O)[C@@](O)(CO)[C@@H](OC)/C=C/[C@@H](C)C1	> 64	> 64	–	–	> 64	–	–	–
C=C1/C=C(\C)[C@H](CC)OC(=O)[C@@H](C)C(=O)[C@@](O)(CO)C/C(OC)=C/[C@@H](C)C1	> 64	> 64	–	–	> 64	–	–	> 64
C=C1/C=C(\C)[C@H](CC)OC(=O)[C@H](C)C(=O)[C@@](O)(CO)C/C(SC)=C/[C@@H](C)C1	> 64	0.5 (≈ 1.26 µM)	16 (≈ 40.3 µM)	0.063 (≈ 0.159 µM)	64 (≈ 161 µM)	–	32 (≈ 80.7 µM)	64 (≈ 161 µM)
C=C1/C=C(\C)[C@H](CC)OC(=O)[C@H](C)C(=O)[C@@](O)(CO)C/C(C)=C/[C@@H](C)C1	> 64	> 64	–	32 (≈ 87.8 µM)	> 64	–	–	> 64
